One may read the DC50 as the concentration at which degradation of the target reaches its halfway point.

The values that follow come from patent publication US12161722B2, “Bifunctional heterocyclic compound having BTK degradation function via ubiquitin proteasome pathway, and use thereof” (KOREA RESEARCH INSTITUTE OF CHEMICAL TECHNOLOGY, priority 2021, dated 2024).

This assay deals with T1, WT BTK protein (Homo sapiens, UniProt Q06187).
T1 construct: measured for intracellular BTK protein levels by Western blotting; endogenous in cells; host or cells: TMD-8 or RAMOS cells
T1 sequence (Q06187 whole entry): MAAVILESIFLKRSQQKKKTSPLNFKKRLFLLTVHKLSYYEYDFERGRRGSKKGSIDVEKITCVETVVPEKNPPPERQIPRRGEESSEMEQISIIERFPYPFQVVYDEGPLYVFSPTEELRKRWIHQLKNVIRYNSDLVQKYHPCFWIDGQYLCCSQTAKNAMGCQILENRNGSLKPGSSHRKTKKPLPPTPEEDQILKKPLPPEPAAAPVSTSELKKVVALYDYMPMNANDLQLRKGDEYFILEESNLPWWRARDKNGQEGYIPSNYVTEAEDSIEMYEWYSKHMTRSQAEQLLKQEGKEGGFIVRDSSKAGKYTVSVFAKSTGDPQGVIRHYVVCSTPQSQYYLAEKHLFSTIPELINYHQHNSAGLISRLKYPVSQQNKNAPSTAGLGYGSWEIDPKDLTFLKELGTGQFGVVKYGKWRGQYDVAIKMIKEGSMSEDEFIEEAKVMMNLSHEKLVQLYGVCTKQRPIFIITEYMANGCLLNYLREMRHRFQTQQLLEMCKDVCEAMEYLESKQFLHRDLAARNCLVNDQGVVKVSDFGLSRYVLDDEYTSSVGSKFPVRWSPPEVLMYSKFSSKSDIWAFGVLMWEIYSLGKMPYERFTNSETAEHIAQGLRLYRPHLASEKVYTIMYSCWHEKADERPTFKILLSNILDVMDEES
Briefly: BTK protein degradation assay (Western blotting), WT BTK. To be noted: concentration range accounting for 50% degradation of WT BTK protein, TMD-8 or RAMOS cells, 24 hours. The class given is cell-based. The procedure: TMD-8, RAMOS, or 293T BTK MUT (C481S) cells were treated with the synthesized compounds and measured for intracellular BTK protein levels by Western blotting. The protocol of the experiment using TMD-8 cells is as follows.
TMD-8 cells were resuspended in an RPMI1640 medium (Hyclone, SH30027.01, 10% FBS (Hyclone, SV30207.02), 1% penicillin-streptomycin (Welgene, LS 202-02) and the cell suspension was seeded at a density of 1×10^6 cells/mL in an amount of 1 mL per well into 12-well plates.
The 12-well plates were treated as follows. A 10 mM stock was 1/10 diluted in series with DMSO ([…]) to form final concentrations of 10, 1, 0.1, 0.01, 0.001, and 0.0001 mM. The compounds with such concentrations were applied to cells, followed by harvesting the cells 24 hours later. For a negative control, a 1/10 dilution of DMSO in the medium (3 mL DMSO+27 mL medium) was used.
The 1-mL cell culture in each well was passed many times through a pipette and then transferred into a 1.5-mL microtube before centrifugation (500 g, 5 min, 4° C.). The supernatant was discarded and the cell pellet was washed with PBS. After centrifugation (500 g, 5 min, 4° C.) again, the supernatant was discarded and the cell pellet was taken.
A lysis buffer was prepared as follows. RIPA buffer (Biosesang, RC2038-050-00)+0.5 mM PMSF (SIGMA, P7626)+1×Protease/Phosphatase Inhibitor (Cell signaling, 5872S) was added in an amount […] per well and left for 30 minutes on ice (vortexing at 0 and 30 minutes) before sonication (5 cycles of pulse for 10 seconds and rest for 30 seconds, 70% amplification). The supernatant obtained by centrifugation (15000 g, 15 min, 4° C.) was transferred into a new microtube. Cells in each well of 96-well plates were 1/2 diluted with the RIPA buffer and incubated at 37° C. for 30 minutes with […] of a 50:1 mixture of BCA reagents A and B in BCA Protein Assay Kit (iNtRON, 21071). After being cooled for 10 minutes, the 96-well plates were measured for absorbance at 562 nm on the BioTek, SYNERGY H1 microplate reader. Samples were prepared by protein quantification based on the absorbance measurements and then boiled at 70° C. for 10 minutes. The sample buffer used in the case was prepared by mixing a NuPAGE or a Bolt 4× sample buffer (Invitrogen) and its 10× sample reducing agent depending on the gel to be used, and protein dilution was made in a RIPI buffer.
The samples were loaded in the same amount into a NuPAGE or Bolt Bis-tris 4-12% gradient gel and allowed to run therein (200 V, 35 minutes). The separated proteins were transferred onto a […] NC membrane, using Trans-blot Turbo (BIO-RAD) (1.3 A constant, 25V limit, 15 minutes). The membrane was blocked at room temperature for 1 hour with skim milk or Intercept Blocking Buffer (LI-COR, 927-60001):0.1% TBST=1:1. The membrane was incubated with Anti BTK Rabbit (1:1,000 in 5% skim milk/0.2% TBST, size: 77 kDa, Cell signaling Technology) at 4° C. overnight O/N or at room temperature for 2 hours and with Anti GAPDH Rabbit (1:10,000 in 5% BSA/0.2% TBST, size: 36 kDa, GENETEX) and Anti β-actin mouse (1:10,000 in 5% BSA/0.2% TBST, RT, size: 43 kDa, GENETEX) at room temperature for 1 or 3 hours. Then, the membrane was washed three times with 0.5% TBST for 5 minutes each time before incubation with the second antibody Anti-Rabbit IgG (1:5,000 in 5% Skim milk/TBST, CST), IRDye® 800CW Goat anti-Rabbit IgG Secondary Antibody (1:10,000 in 5% skim/TBST, RT 45 min), or IRDye® 680RD Goat anti-Mouse IgG Secondary Antibody (1:10,000 in 5% skim/TBST, RT 45 min) for 45 minutes at room temperature in a rocker. The membrane was washed five times with 0.5% TBST for 5 minutes in each time, followed by detection with LI-COR, Odyssey. In this regard, the detection proceeded, as it was, for house-keeping genes while using SuperSignal West Pico PLUS Chemiluminescent Substrate or SuperSignal West femto Maximum Sensitivity Substrate for BTK detection. […]
Background: In western blotting, separated proteins are transferred to a membrane and probed.
As to `Cc1cccc(C)c1Nc1nn(C)c2nc(Nc3ccc4c(c3)CN(C(=S)C3CCN(c5ccc6c(c5)C(=O)N(C5CCC(=O)NC5=O)C6=O)CC3)CC4)ncc12` (stereo not shown) [Compound 232, 5-(4-(7-((3-((2,6-dimethylphenyl)amino)-1-methyl-1H-pyrazolo[3,4-d]pyrimidin-6-yl)amino)-1,2,3,4-tetrahydroisoquinoline-2-carbonothioyl)piperidin-1-yl)-2-(2,6-dioxopiperidin-3-yl)isoindoline-1,3-dione], the DC50 is 0.1 to 10 nM.

As to `Cc1cccc(C)c1Nc1nn(C)c2nc(Nc3ccc(C4CCN(C(=O)CC5CCN(c6ccc7c(c6)C(=O)N(C6CCC(=O)NC6=O)C7=O)CC5)CC4)cc3)ncc12` (stereo not shown) [Compound 222, 5-(4-(2-(4-(4-((3-((2,6-Dimethylphenyl)amino)-1-methyl-1H-pyrazolo[3,4-d]pyrimidin-6-yl)amino)phenyl)piperidin-1-yl)-2-oxoethyl)piperidin-1-yl)-2-(2,6-dioxopiperidin-3-yl)isoindoline-1,3-dione], the DC50 lay within 0.1 to 10 nM.

Consider `Cc1cccc(C)c1Nc1nn(C)c2nc(Nc3ccc(C4CCN(C(=O)CC5CCN(c6ccc7c(c6)C(=O)N(C6CCC(=O)NC6=O)C7=O)CC5)CC4)c(F)c3)ncc12` (stereo not shown) [Compound 227, 5-(4-(2-(4-(4-((3-((2,6-dimethylphenyl)amino)-1-methyl-1H-pyrazolo[3,4-d]pyrimidin-6-yl)amino)-2-fluorophenyl)piperidin-1-yl)-2-oxoethyl)piperidin-1-yl)-2-(2,6-dioxopiperidin-3-yl)isoindoline-1,3-dione], for which the DC50 was 0.1 to 10 nM.

As to `Cc1cccc(C)c1Nc1nn(C)c2nc(Nc3ccc4c(c3)CN(C(=O)C3CCN(c5ccc6c(c5)n(C)c(=O)n6C5CCC(=O)NC5=O)CC3)CC4)ncc12` (stereo not shown) [Compound 264, 3-(5-(4-(7-((3-((2,6-Dimethylphenyl)amino)-1-methyl-1H-pyrazolo[3,4-d]pyrimidin-6-yl)amino)-1,2,3,4-tetrahydroisoquinoline-2-carbonyl)piperidin-1-yl)-3-methyl-2-oxo-2,3-dihydro-1H-benzo[d]imidazol-1-yl)piperidin-2,6-one], the DC50 lay in the range of 0.1 to 10 nM.

With `Cc1cccc(C)c1Nc1nn(C)c2nc(Nc3ccc(C4CCN(C(=O)C5(F)CCN(c6ccc7c(c6)C(=O)N(C6CCC(=O)NC6=O)C7=O)CC5)CC4)cc3)ncc12` (stereo not shown) [Compound 253, 5-(4-(4-(4-((3-((2,6-dimethylphenyl)amino)-1-methyl-1H-pyrazolo[3,4-d]pyrimidin-6-yl)amino)phenyl)piperidine-1-carbonyl)-4-fluoropiperidin-1-yl)-2-(2,6-dioxopiperidin-3-yl)isoindoline-1,3-dione], the DC50 was 0.1 to 10 nM.

For the compound `Cc1cccc(C)c1Nc1nn(C)c2nc(Nc3ccc4c(c3)CN(C(=O)C3CCN(C(=O)COc5ccc6c(c5)C(=O)N(C5CCC(=O)NC5=O)C6=O)CC3)CC4)ncc12` (stereo not shown) [Compound 43, 5-(2-(4-(7-((3-((2,6-Dimethylphenyl)amino)-1-methyl-1H-pyrazolo[3,4-d]pyrimidin-6-yl)amino)-1,2,3,4-tetrahydroisoquinoline-2-carbonyl)piperidin-1-yl)-2-oxoethoxy)-2-(2,6-dioxopiperidin-3-yl)isoindoline-1,3-dione], the DC50 lay within 0.1 to 10 nM.

On to `Cc1cccc(C)c1Nc1nn(C)c2nc(Nc3ccc(N4CCN(CC5CCN(c6ccc7c(c6)C(=O)N(C6CCC(=O)NC6=O)C7=O)CC5)CC4)cn3)ncc12` (stereo not shown) [Compound 162, 5-(4-((4-(6-((3-((2,6-Dimethylphenyl)amino)-1-methyl-1H-pyrazolo[3,4-d]pyrimidin-6-yl)amino)pyridin-3-yl)piperazin-1-yl)methyl)piperidin-1-yl)-2-(2,6-dioxopiperidin-3-yl)isoindoline-1,3-dione], for which the DC50 lay in the range of 10 to 1000 nM.

As to `Cc1cccc(C)c1Nc1nn(C)c2nc(Nc3ccc4c(c3)CN(CC3CCN(c5ccc6c(c5)C(=O)N(C5CCC(=O)NC5=O)C6=O)CC3)C4)ncc12` (stereo not shown) [Compound 73, 5-(4-((5-((3-((2,6-Dimethylphenyl)amino)-1-methyl-1H-pyrazolo[3,4-d]pyrimidin-6-yl)amino)isoindolin-2-yl)methyl)piperidin-1-yl)-2-(2,6-dioxopiperidin-3-yl)isoindoline-1,3-dione], the DC50 lay within 10 to 1000 nM.

Regarding `Cc1cccc(C)c1Nc1nn(C)c2nc(Nc3ccc4c(c3)CN(CC3CCN(c5ccc6c(c5)C(=O)N(C5CCC(=O)N(COC(=O)C(C)(C)C)C5=O)C6=O)CC3)CC4)ncc12` (stereo not shown) [Compound 107, (3-(5-(4-((7-((3-((2,6-dimethylphenyl)amino)-1-methyl-1H-pyrazolo[3,4-d]pyrimidin-6-yl)amino)-3,4-dihydroisoquinolin-2 (1H)-yl)methyl)piperidin-1-yl)-1,3-dioxoisoindolin-2-yl)-2,6-dioxopiperidin-1-yl)methyl pivalate], the DC50 was in the range of 0.1 to 10 nM.

Turning to `Cc1cccc(C)c1Nc1nn(C)c2nc(Nc3ccc4c(c3)CN(C(=O)C3(NCC5CCN(c6ccc7c(c6)C(=O)N(C6CCC(=O)NC6=O)C7=O)CC5)CC3)CC4)ncc12` (stereo not shown) [Compound 199, 5-(4-(((1-(7-((3-((2,6-Dimethylphenyl)amino)-1-methyl-1H-pyrazolo[3,4-d]pyrimidin-6-yl)amino)-1,2,3,4-tetrahydroisoquinoline-2-carbonyl)cyclopropyl)amino)methyl)piperidin-1-yl)-2-(2,6-dioxopiperidin-3-yl)isoindoline-1,3-dione], the DC50 was 10 to 1000 nM.

With `Cc1cccc(C)c1Nc1nn(C)c2nc(Nc3ccc4c(c3)CN(C(=O)CC3(O)CCN(c5ccc6c(c5)C(=O)N(C5CCC(=O)NC5=O)C6=O)CC3)CC4)ncc12` (stereo not shown) [Compound 129, 5-(4-(2-(7-((3-((2,6-dimethylphenyl)amino)-1-methyl-1H-pyrazolo[3,4-d]pyrimidin-6-yl)amino)-3,4-dihydroisoquinolin-2 (1H)-yl)-2-oxoethyl)-4-hydroxypiperidin-1-yl)-2-(2,6-dioxopiperidin-3-yl)isoindoline-1,3-dione], the DC50 lay within 0.1 to 10 nM.

Turning to `Cc1cccc(C)c1Nc1nn(C)c2nc(Nc3ccc4c(c3)CN(C(=O)C3(F)CCN(C(=O)COc5ccc6c(c5)C(=O)N(C5CCC(=O)NC5=O)C6=O)CC3)CC4)ncc12` (stereo not shown) [Compound 248, 5-(2-(4-(7-((3-((2,6-Dimethylphenyl)amino)-1-methyl-1H-pyrazolo[3,4-d]pyrimidin-6-yl)amino)-1,2,3,4-tetrahydroisoquinoline-2-carbonyl)-4-fluoropiperidin-1-yl)-2-oxoethoxy)-2-(2,6-dioxopiperidin-3-yl)isoindoline-1,3-dione], the DC50 lay in the range of 0.1 to 10 nM.

With `Cc1cccc(C)c1Nc1nn(C)c2nc(Nc3ccc(C4CCN(C[C@H]5CCN(c6ccc7c(c6)C(=O)N(C6CCC(=O)NC6=O)C7=O)C5)CC4)cc3)ncc12` (stereo partly drawn) [Compound 166, 5-((R)-3-((4-(4-((3-((2,6-Dimethylphenyl)amino)-1-methyl-1H-pyrazolo[3,4-d]pyrimidin-6-yl)amino)phenyl)piperidin-1-yl)methyl)pyrrolidin-1-yl)-2-(2,6-dioxopiperidin-3-yl)isoindoline-1,3-dione], the DC50 was 0.1 to 10 nM.
